Experimental data as given in PMC4689404, “2-Benzazolyl-4-Piperazin-1-Ylsulfonylbenzenecarbohydroxamic Acids as Novel Selective Histone Deacetylase-6 Inhibitors with Antiproliferative Activity” (PLoS ONE, 2015).

How the values were obtained:
[1] = test system: HCC4017 lung cancer cells; test: cell cycle analysis (PI, FACS); assay type: cell-based, human; conditions: for effect on cell cycle distribution: HCC4017, FACs analysis; for subG0 population: HCC4017, even after 64h
Protocol: For cell cycle analysis, cells were washed with PBS, fixed in 70% ethanol for 2 h, washed with PBS and resuspended in staining solution (0.1% Triton X-100, 0.2 mg/ml DNAse-free RNAse A and […]) and incubated at 37C for 15 min. Histograms were acquired on a BD FACSCalibur flow cytometer at UT Southwestern’s core facility. Apoptosis was measured using a FITC Annexin V Apoptosis Detection Kit I (BD Pharmingen) according to manufacturer’s protocol after treating cells with compounds as indicated in Figure legends.

HCT-116 = test: NCI 60 screen, five dose; assay type: cell-based; conditions: Homo sapiens, Colon Cancer, GI50 = molar concentration, read-out: Log10 GI50 (converted)
Renal Cancer cell lines = test: NCI 60 screen, five dose; assay type: cell-based, human; conditions: for GI50: Homo sapiens; for no. cell lines used for the assay/no inhibited by compound: figures in parenthesis
HOP-62 = test: NCI 60 screen, five dose; assay type: cell-based; conditions: Homo sapiens, Non-Small Cell Lung Cancer, GI50 = molar concentration, read-out: Log10 GI50 (converted)
SK-MEL-5 = test: NCI 60 screen, five dose; assay type: cell-based; conditions: Homo sapiens, Melanoma, GI50 = molar concentration, read-out: Log10 GI50 (converted)
OVCAR-4 = test: NCI 60 screen, five dose; assay type: cell-based; conditions: Homo sapiens, Ovarian Cancer, GI50 = molar concentration, read-out: Log10 GI50 (converted)
SNB-75 = test: NCI 60 screen, five dose; assay type: cell-based; conditions: Homo sapiens, CNS Cancer, GI50 = molar concentration, read-out: Log10 GI50 (converted)
Breast cancer cell lines = test: NCI 60 screen, five dose; assay type: cell-based, human; conditions: for GI50: Homo sapiens; for no. cell lines used for the assay/no inhibited by compound: figures in parenthesis
NCI-H226 = test: NCI 60 screen, five dose; assay type: cell-based; conditions: Homo sapiens, Non-Small Cell Lung Cancer, GI50 = molar concentration, read-out: Log10 GI50 (converted)
KM12 = test: NCI 60 screen, five dose; assay type: cell-based; conditions: Homo sapiens, Colon Cancer, GI50 = molar concentration, read-out: Log10 GI50 (converted)
COLO 205 = test: NCI 60 screen, five dose; assay type: cell-based; conditions: Homo sapiens, Colon Cancer, GI50 = molar concentration, read-out: Log10 GI50 (converted)
SF-268 = test: NCI 60 screen, five dose; assay type: cell-based; conditions: Homo sapiens, CNS Cancer, GI50 = molar concentration, read-out: Log10 GI50 (converted)
HCC-2998 = test: NCI 60 screen, five dose; assay type: cell-based; conditions: Homo sapiens, Colon Cancer, GI50 = molar concentration, read-out: Log10 GI50 (converted)
UO-31 = test: NCI 60 screen, five dose; assay type: cell-based; conditions: Homo sapiens, Renal Cancer, GI50 = molar concentration, read-out: Log10 GI50 (converted)
[2] = test system: Prostate Cancer cell lines; test: NCI 60 screen, five dose; assay type: cell-based, human; conditions: for GI50: Homo sapiens; for no. cell lines used for the assay/no inhibited by compound: figures in parenthesis
SK-MEL-2 = test: NCI 60 screen, five dose; assay type: cell-based; conditions: Homo sapiens, Melanoma, GI50 = molar concentration, read-out: Log10 GI50 (converted)
HCT-15 = test: NCI 60 screen, five dose; assay type: cell-based; conditions: Homo sapiens, Colon Cancer, GI50 = molar concentration, read-out: Log10 GI50 (converted)
OVCAR-5 = test: NCI 60 screen, five dose; assay type: cell-based; conditions: Homo sapiens, Ovarian Cancer, GI50 = molar concentration, read-out: Log10 GI50 (converted)
786-0 = test: NCI 60 screen, five dose; assay type: cell-based; conditions: Homo sapiens, Renal Cancer, GI50 = molar concentration, read-out: Log10 GI50 (converted)
PC-3 = test: NCI 60 screen, five dose; assay type: cell-based; conditions: Homo sapiens, Prostate Cancer, GI50 = molar concentration, read-out: Log10 GI50 (converted)
SN12C = test: NCI 60 screen, five dose; assay type: cell-based; conditions: Homo sapiens, Renal Cancer, GI50 = molar concentration, read-out: Log10 GI50 (converted)
UACC-257 = test: NCI 60 screen, five dose; assay type: cell-based; conditions: Homo sapiens, Melanoma, GI50 = molar concentration, read-out: Log10 GI50 (converted)
BT-549 = test: NCI 60 screen, five dose; assay type: cell-based; conditions: Homo sapiens, Breast Cancer, GI50 = molar concentration, read-out: Log10 GI50 (converted)
Leukemia cell lines = test: NCI 60 screen, five dose; assay type: cell-based, human; conditions: for GI50: Homo sapiens; for no. cell lines used for the assay/no inhibited by compound: figures in parenthesis
CCRF-CEM = test: NCI 60 screen, five dose; assay type: cell-based; conditions: Homo sapiens, Leukemia, GI50 = molar concentration, read-out: Log10 GI50 (converted)
U251 = test: NCI 60 screen, five dose; assay type: cell-based; conditions: Homo sapiens, U-251, CNS Cancer, GI50 = molar concentration, read-out: Log10 GI50 (converted)
A549/ATCC = test: NCI 60 screen, five dose; assay type: cell-based; conditions: Homo sapiens, Non-Small Cell Lung Cancer, GI50 = molar concentration, read-out: Log10 GI50 (converted)
Melanoma cell lines = test: NCI 60 screen, five dose; assay type: cell-based, human; conditions: for GI50: Homo sapiens; for no. cell lines used for the assay/no inhibited by compound: figures in parenthesis
A498 = test: NCI 60 screen, five dose; assay type: cell-based; conditions: Homo sapiens, Renal Cancer, GI50 = molar concentration, read-out: Log10 GI50 (converted)
TK-10 = test: NCI 60 screen, five dose; assay type: cell-based; conditions: Homo sapiens, Renal Cancer, GI50 = molar concentration, read-out: Log10 GI50 (converted)
CNS cancer cell lines = test: NCI 60 screen, five dose; assay type: cell-based, human; conditions: for GI50: Homo sapiens; for no. cell lines used for the assay/no inhibited by compound: figures in parenthesis
UACC-62 = test: NCI 60 screen, five dose; assay type: cell-based; conditions: Homo sapiens, Melanoma, GI50 = molar concentration, read-out: Log10 GI50 (converted)
[3] = test system: 60 human tumor cell lines; test: NCI 60 human tumor cell line screen; assay type: cell-based; conditions: for GI50: Homo sapiens, 60 cell, read-out: MID (average GI50 across the 60 cell lines); for average growth inhibition: single dose of 10 μm, 60 cell line panel
Description: To evaluate if the antiproliferative activity of the novel hydroxamic acid derived compounds was general across cancer types, selected compounds were submitted for testing in the tissue-specific panel of human tumor cell lines at the National Cancer Institute, Bethesda, USA. This screen utilizes 60 human tumor cell lines, representing leukemia, melanoma and cancers of the lung, colon, brain, ovary, kidney, prostate and breast. This cell line panel offers the advantage of having available microarray gene expression data across the 60 cell lines which can be used to determine the uniqueness of a new lead for which the molecular target(s) might not be known. The antitumor activity is presented for each cell line by three parameters, namely log10 GI50 value (GI50 = molar concentration of the compound that inhibits 50% net cell growth), log10 TG value (TGI = molar concentration of the compound leading to total inhibition of net cell growth), and log10 LC50 value (LC50 = molar concentration of the compound leading to 50% net cell death) accompanied by MID which refers to the average inhibitory value across the 60 cell lines.
In this assay, compounds 9c (NSC 747073) and 9d (NSC 747072) inhibited the proliferation of subsets of leukemia, colon, CNS, melanoma, and prostrate cancer cells to a higher extent than cells from other cancers (Fig 6A and 6B).

Cn1c(N2CCN(S(=O)(=O)c3ccc(C(=O)NO)cc3)CC2)nc2ccccc21 [Compound 9b, 4-[4-(1-methylbenzimidazol-2-yl)piperazin-1-yl]sulfonylbenzenecarbohydroxamic acid]
effect on cell cycle distribution [1]: affect cell cycle distribution after just 18h of treatment
subG0 population [1]: no subG0 population was observed

O=C(NO)c1ccc(S(=O)(=O)N2CCN(c3nc4ccccc4o3)CC2)cc1 [Compound 9c, 4-(4-Benzoxazol-2-yl-piperazin-1-sulfonyl)-N -hydroxy-benzamid]
GI50 (HCT-116): 4.07 µM
GI50 (Renal Cancer cell lines): 8.24 µM
no. cell lines used for the assay/no inhibited by compound (Renal Cancer cell lines): 3/8
GI50 (HOP-62): 12 µM
GI50 (SK-MEL-5): 5.62 µM
GI50 (OVCAR-4): 4.9 µM
GI50 (SNB-75): 4.37 µM
GI50 (Breast cancer cell lines): 8.71 µM
no. cell lines used for the assay/no inhibited by compound (Breast cancer cell lines): 2/7
GI50 (NCI-H226): 20.9 µM
GI50 (KM12): 5.13 µM
GI50 (COLO 205): 1.7 µM
GI50 (SF-268): 12 µM
GI50 (HCC-2998): 17.4 µM
GI50 (UO-31): 10.7 µM
GI50 [2]: 4.89 µM
no. cell lines used for the assay/no inhibited by compound [2]: 2/2
GI50 (SK-MEL-2): 16.2 µM
GI50 (HCT-15): 18.2 µM
GI50 (OVCAR-5): 10.2 µM
GI50 (786-0): 23.4 µM
GI50 (PC-3): 3.24 µM
GI50 (SN12C): 11.7 µM
GI50 (UACC-257): 6.46 µM
GI50 (BT-549): 12 µM
GI50 (Leukemia cell lines): 2.24 µM
no. cell lines used for the assay/no inhibited by compound (Leukemia cell lines): 4/4
GI50 (CCRF-CEM): 1.78 µM
effect on cell cycle distribution [1]: affect cell cycle distribution after just 18h of treatment
subG0 population [1]: no subG0 population was observed
GI50 (U251): 6.46 µM
GI50 (A549/ATCC): 13.5 µM
GI50 (Melanoma cell lines): 5.62 µM
no. cell lines used for the assay/no inhibited by compound (Melanoma cell lines): 6/8
GI50 (A498): 2.82 µM
GI50 (TK-10): 7.94 µM
GI50 (CNS cancer cell lines): 5.82 µM
no. cell lines used for the assay/no inhibited by compound (CNS cancer cell lines): 4/6
GI50 (UACC-62): 4.27 µM
GI50 ([3]; five dose assay): 6.61 µM
average growth inhibition [3]: 50%

O=C(NO)c1ccc(S(=O)(=O)N2CCN(c3nc4ccccc4s3)CC2)cc1 [Compound 9d, 4-(4-Benzothiazol-2-yl-piperazin-1-sulfonyl)-N -hydroxy-benzamid]
GI50 (HCT-116): 1.7 µM
GI50 (Renal Cancer cell lines): 3.94 µM
no. cell lines used for the assay/no inhibited by compound (Renal Cancer cell lines): 3/8
GI50 (HOP-62): 3.8 µM
GI50 (SK-MEL-5): 3.98 µM
GI50 (OVCAR-4): 3.8 µM
GI50 (SNB-75): 1.74 µM
GI50 (Breast cancer cell lines): 3.88 µM
no. cell lines used for the assay/no inhibited by compound (Breast cancer cell lines): 4/7
GI50 (NCI-H226): 10 µM
GI50 (KM12): 2.14 µM
GI50 (COLO 205): 3.02 µM
GI50 (SF-268): 3.98 µM
GI50 (HCC-2998): 2.14 µM
GI50 (UO-31): 4.37 µM
GI50 [2]: 2.48 µM
no. cell lines used for the assay/no inhibited by compound [2]: 2/2
GI50 (SK-MEL-2): 6.31 µM
GI50 (HCT-15): 3.98 µM
GI50 (OVCAR-5): 7.76 µM
GI50 (786-0): 9.12 µM
GI50 (PC-3): 2.04 µM
GI50 (SN12C): 10.5 µM
GI50 (UACC-257): 3.55 µM
GI50 (BT-549): 2.4 µM
GI50 (Leukemia cell lines): 1.77 µM
no. cell lines used for the assay/no inhibited by compound (Leukemia cell lines): 5/5
GI50 (CCRF-CEM): 1.82 µM
GI50 (U251): 2.75 µM
GI50 (A549/ATCC): 3.63 µM
GI50 (Melanoma cell lines): 2.66 µM
no. cell lines used for the assay/no inhibited by compound (Melanoma cell lines): 5/8
GI50 (A498): 1.82 µM
GI50 (TK-10): 3.63 µM
GI50 (CNS cancer cell lines): 2.77 µM
no. cell lines used for the assay/no inhibited by compound (CNS cancer cell lines): 4/6
GI50 (UACC-62): 1.7 µM
GI50 ([3]; five dose assay): 3.16 µM
more potent overall by a factor, compared to 9c ([3]; MID, five dose assay): 2
average growth inhibition [3]: 62%
